Experimental data: patent US9656995B2, “Triazine derivative” (Carna Biosciences, Inc., priority 2013, dated 2017)
“Also recorded” adds a separate entry of the source.

What was measured:
[1] = tested on: collagen-induced arthritis; test: Rat collagen-induced arthritis model; format: in vivo; settings: Lewis rat, 30 and 60 mg/kg orally twice a day
Procedure: Effect in Rat Collagen-Induced Arthritis Model
Incomplete Freund's Adjuvant (Sigma-Aldrich, #F5506) and Bovine Type II Collagen, 4 mg/mL Solution (Sichuan University, Lot.08H0497) were mixed in a 1:1 ratio to form an emulsion. Three groups of Lewis rat (10 animals/group) (5-6 week old, female) received 0.5 mL per animal of the emulsion which was given in small portions on Day 0 and Day 7 by intradermal injection at 3 sites, one site at the base of the tail (0.1 mL), and the rest of two sites (0.2 mL/site) were on the back of the rat near to the base of the tail, thereby accomplishing the immunization. The solvent or the test compound solution was given twice a day orally every day from Day 0 to Day 20 (test compound doses in the respective groups: 0 mg/kg, 30 mg/kg, 60 mg/kg). The treatment solution was prepared with the similar solvent in the similar manner as Test Example 4.
After the boost on Day 7, the state of the arthritis onset in each extremity was scored visually twice in a week according to the criteria shown in Table 8. The scores of all four extremities were summed up on each rat basis, and the mean value of 10 animals in each group was represented as an arthritis score (normal “0” up to maximum “16”).

[2] = tested on: collagen-induced arthritis; test: Mouse collagen-induced arthritis model; format: in vivo; settings: DBA/1J mice, 30 and 60 mg/kg orally twice a day
Procedure: Effect in Mouse Collagen-Induced Arthritis Model
Incomplete Freund's Adjuvant (Chondrex, Inc., #7002) supplemented with M. Tuberculosis H37 Ra, Desiccated (Beckton Dickinson and Company, #231141) at 2.5 mg/mL and Bovine Type II Collagen, 2 mg/mL Solution (Chondrex, Inc., #20022) were mixed in a 1:1 ratio to form an emulsion.
Three groups of DBA/1J mice (10 animals/group) (6-week old, male) received 0.1 mL per animal of the emulsion which was given in small portions on Day 0 and Day 21 by intradermal injection at the base of the tail, thereby accomplishing the immunization. The solvent or the test compound solution was given twice a day orally every day from Day 18 to Day 36 (test compound doses in the respective groups: 0 mg/kg, 30 mg/kg, 60 mg/kg). The treatment solution was prepared with the similar solvent in the similar manner as Test Example 4.
After the boost on Day 21, the state of the arthritis onset in each extremity was scored visually once in 2 or 3 days according to the criteria shown in Table 7. The scores of all four extremities were summed up on each mouse basis, and the mean value of 10 animals in each group was represented as an arthritis score (normal “0” up to maximum “16”).

BTK = target: T1, BTK (Homo sapiens, UniProt Q06187); test: Intracellular BTK auto-phosphorylation activity inhibition test in Ramos cells; format: cell-based; settings: test compound 0.3 μM, anti-IgM stimulation, pY223, read-out: BTK Phosphorylation inhibiting activity
T1 construct: endogenous in cells; host or cells: Ramos cells (2G6.4C10, ATCC No. CRL-1923)
T1 sequence (Q06187 whole entry): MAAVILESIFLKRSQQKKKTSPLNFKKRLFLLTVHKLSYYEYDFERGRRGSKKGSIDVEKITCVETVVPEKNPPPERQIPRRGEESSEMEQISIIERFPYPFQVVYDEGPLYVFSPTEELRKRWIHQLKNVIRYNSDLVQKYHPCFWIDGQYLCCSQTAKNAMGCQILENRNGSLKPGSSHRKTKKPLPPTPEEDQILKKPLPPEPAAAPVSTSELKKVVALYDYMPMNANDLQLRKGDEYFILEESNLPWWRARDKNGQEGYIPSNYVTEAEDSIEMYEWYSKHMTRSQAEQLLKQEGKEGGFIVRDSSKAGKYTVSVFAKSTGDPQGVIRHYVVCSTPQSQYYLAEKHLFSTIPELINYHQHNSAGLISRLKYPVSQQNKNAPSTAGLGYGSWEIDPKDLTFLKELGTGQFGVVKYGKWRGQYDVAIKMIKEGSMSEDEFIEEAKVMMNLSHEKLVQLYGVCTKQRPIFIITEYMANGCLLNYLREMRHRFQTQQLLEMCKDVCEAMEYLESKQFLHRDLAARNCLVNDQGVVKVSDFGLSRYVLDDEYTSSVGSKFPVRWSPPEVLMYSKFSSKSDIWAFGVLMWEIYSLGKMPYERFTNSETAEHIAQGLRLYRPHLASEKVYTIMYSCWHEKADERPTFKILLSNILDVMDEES
Procedure: Intracellular BTK Auto-Phosphorylation Activity Inhibition Test
(Culture of Cells to be Used)
Ramos cells (2G6.4C10, ATCC No. CRL-1923) were cultured in a T75 flask containing RPMI-1640 medium (GIBCO, #A10491-01) supplemented with 10% FBS (AusGene) and 5% penicillin-streptomycin (Nacalai Tesque, Inc.) (hereinafter referred to as growth medium) in a 5% CO2 incubator.
(Addition of the Compound to be Tested)
The cultured Ramos cells were diluted to a cell density of 7.5×10^6 cells/mL with a serum-free RPMI-1640 (hereinafter referred to as medium) and kept at 37° C. for 45 minutes. The cell suspension was dispensed in 1 mL aliquots into 2.0 mL tubes. […]
To the pellets obtained by recovering the cells via centrifugation, 100 μL of a lysis buffer [RIPA Buffer(×1) (Cell Signaling Technology, Inc.) supplemented with 1% Phosphatase inhibitor Cacktail 3 (Sigma Corporation, No. P0044), 1% Phosphatase inhibitor Cacktail (Nacalai Tesque, Inc., No. 07575) and 1 mM phenylmethylsulfonyl fluoride (PMSF)] was added and stirred gently and then allowed to stand for 10 minutes. The supernatant was recovered by centrifugation (15,000 rpm, 15 minutes) and the protein level was quantified. […]

[3] = tested on: passive cutaneous anaphylaxis reaction (PCA reaction); test: Passive cutaneous anaphylaxis reaction in mouse; format: in vivo; settings: ICR mouse, oral, 3.0 mg/mL at 10 mL/kg, vs solvent group (FIG. 2)
From the text: Test of Passive Cutaneous Anaphylaxis Reaction in Mouse
Since BTK plays an important role in FcεRI signal transmission in a mast cell, it was investigated whether a mast cell-involving immediate allergic reaction, namely, passive cutaneous anaphylaxis reaction (PCA reaction), which is an immediate allergic reaction involving mast cell, was inhibited by the administration of the compound.
(Preparation of Test Compound Solution)
DMSO, polyethylene glycol 400 (PEG#400, Nacalai Tesque, Inc. #28215-95), and 30% (w/v) hydroxypropyl-β-cyclodextrin aqueous solution (HP-β-CD, Sigma Corporation, #332607-500) were successively added to the test compound in this order, and mixed thoroughly to prepare a test compound solution (solvent composition: 5% solution of test compound in DMSO, 30% PEG#400, 65% HP-β-CD [30% (w/v) aqueous solution]). In the solvent control group, a DMSO solution was used instead of the solution of the test compound in DMSO.
An anti DNP-IgE monoclonal antibody (50 μg/mL, Santa Cruz Biotechnology, Inc., #sc-69695) was intradermally administered to both auricles in an ICR mouse under systemic anesthesia (10 μL/site). […] The absorbance of the resultant filtrate at 620 nm was measured, and used as an index of the dye leakage level. […]

[4] = tested on: BCR signal in the Ramos cells; test: Inhibition test on the change of Ramos intracellular calcium ion (anti-IgM BCR stimulation); format: cell-based; settings: 0.003-1 μM, anti-IgM 2.0 μg/mL (FIG. 1)
Procedure: Inhibition Test on the Change of Ramos Intracellular Calcium Ion
The intracellular BTK inhibition by the compounds of the invention was verified by measuring the effects of the compounds of the invention on “anti-IgM antibody BCR stimulation-induced intracellular calcium influx”.
(Addition of Cell Suspension and Calcium Indicator)
One day before measurement, the Ramos cells were cultured after suspended again at a cell density of 1.0×10^6 cells/mL in a fresh growth medium (growth medium as used in Test Example 2), and the cells were recovered next day by centrifugation and washed with RPMI-1640 medium supplemented with 5% penicillin-streptomycin (Nacalai Tesque, Inc.) (Medium 1). These cells were suspended again at a cell density of 2.0×10^6 cells/mL in RPMI-1640 medium supplemented with 1% Ultra Low IgG FBS (GIBCO, #16250) and 5% penicillin-streptomycin (Nacalai Tesque, Inc.) (Medium 2), and thereafter each 100 μL of the cell suspension was added to each well of a poly lysine-coated microplate (BD BioCoat™, #356692), centrifuged (700 rpm, 3 minutes) and then incubated for 1 hour in a 5% CO2 incubator at 37° C. […]
Concentration of the Ramos intracellular calcium ion was measured as a fluorescent intensity of the calcium indicator Fluo-8NW using a microplate reader (SynergyH1) (Ex/Em=490/525 nm). […]

SMILES | Toxic signs such as weight loss ([1]; Day 0 to Day 20) | Inhibition of onset of arthritis (arthritis score) ([1]; Day 0 to Day 20 (FIG. 4)) | Toxic signs such as weight loss ([2]; Day 18 to Day 36) | Inhibition of onset of arthritis (arthritis score) ([2]; Day 18 to Day 36 (FIG. 3)) | inhibition at 0.3 µM (BTK) | Inhibition of leakage of the dye into the auricles (PCA reaction) [3] | Inhibition of change of intracellular calcium ion induced by BCR-stimulation [4]
Cn1cc(Nc2nc(N)nc(-c3cccc(-n4ccc5cc(C6CC6)cc(F)c5c4=O)c3CO)n2)cn1 [Example 1, 2-(3-{4-Amino-6-[(1-methyl-1H-pyrazol-4-yl)amino]-1,3,5-triazin-2-yl}-2-(hydroxymethyl)phenyl)-6-cyclopropyl-8-fluoroisoquinolin-1(2H)-one] | able to circumvent any toxic signs such as weight loss | inhibited the onset of the arthritis in a dose dependent manner | able to circumvent any toxic signs such as weight loss | inhibited the onset of the arthritis in a dose dependent manner | ≥ 70% | inhibited the leakage of the dye in blood into the auricles significantly | in a concentration-dependent manner from a low concentration; also recorded: inhibits the BCR signal in the Ramos cells in a concentration dependent manner
Cn1cc(Nc2nc(N)nc(-c3cccc(-n4ccc5cc(C6CC6)cc(F)c5c4=O)c3CO)n2)cc1C#N [Example 2, 4-({4-Amino-6-[3-(6-cyclopropyl-8-fluoro-1-oxoisoquinolin-2(1H)-yl)-2-(hydroxymethyl)phenyl]-1,3,5-triazin-2-yl}amino)-1-methyl-1H-pyrrole-2-carbonitrile] | – | – | – | – | ≥ 70% | – | –
